# Results taken from US20230049572A1, “FORMULATION, COMPOSITION OR FOODSTUFF ADDITIVES FOR THE MODIFICATION OF GLYCEMIC RESPONSE METHODS OF MANUFACTURING AND USING THE SAME” (HOOW FOODS PTE. LTD., priority 2019, published 2023).
# Where two headings read alike, the source gives them in different places.
# How the values were obtained:
# [1] = per dose / per meal; cited from earlier work
# [2] = molecular target: T1, bakers yeast a-glucosidase (Saccharomyces cerevisiae, UniProt P53341); test: In vitro flavonoid inhibition of alpha-glucosidase (pNPG); assay type: biochemical
# T1 construct: purchased Sigma-Aldrich
# Experimental: The alpha-glucosidase inhibition was determined using purified alpha-glucosidase from yeast. An alpha-glucosidase reaction mixture contained 2.9 mM p-nitrophenyl-α-d-glucopyranoside (pNPG) (Sigma-Aldrich), 0.25 ml of flavonoid in DMSO and 0.6 U/ml of bakers yeast a-glucosidase (Sigma-Aldrich) in sodium phosphate buffer, pH 6.9. […] The reaction mixtures were incubated at 25° C. for 5 min, after which the reaction was stopped by boiling for 2 min. Absorbance of the resulting p-nitrophenol (pNP) were spectrophotometry determined at 405 nm and was considered directly proportional to the activity of the enzyme. Glucosidase activity inhibition was determined as percentage of control as follows:
# In order to eliminate background readings, the absorbance of the flavenoid without substrate and enzyme was subtracted from absorbance of the flavonoid and substrate mixture as follows: Corrected A405 test samples=A405 flavonoid and substrate—A405 flavonoid alone (background).
# The activity in controls (with a-glucosidase but without inhibitor) was considered to be 100%. […] Different flavonoids were compared on the basis of their ICso values estimated from the dose response curves.
# alpha amylase = test: Inhibition of alpha amylase (similar studies); assay type: biochemical
# [3] = pNPG 2.9 mM, pH 6.9, 25° C., 5 min, read-out: IC50, inhibition of yeast alpha-glucosidase
# T1 sequence (P53341 whole entry): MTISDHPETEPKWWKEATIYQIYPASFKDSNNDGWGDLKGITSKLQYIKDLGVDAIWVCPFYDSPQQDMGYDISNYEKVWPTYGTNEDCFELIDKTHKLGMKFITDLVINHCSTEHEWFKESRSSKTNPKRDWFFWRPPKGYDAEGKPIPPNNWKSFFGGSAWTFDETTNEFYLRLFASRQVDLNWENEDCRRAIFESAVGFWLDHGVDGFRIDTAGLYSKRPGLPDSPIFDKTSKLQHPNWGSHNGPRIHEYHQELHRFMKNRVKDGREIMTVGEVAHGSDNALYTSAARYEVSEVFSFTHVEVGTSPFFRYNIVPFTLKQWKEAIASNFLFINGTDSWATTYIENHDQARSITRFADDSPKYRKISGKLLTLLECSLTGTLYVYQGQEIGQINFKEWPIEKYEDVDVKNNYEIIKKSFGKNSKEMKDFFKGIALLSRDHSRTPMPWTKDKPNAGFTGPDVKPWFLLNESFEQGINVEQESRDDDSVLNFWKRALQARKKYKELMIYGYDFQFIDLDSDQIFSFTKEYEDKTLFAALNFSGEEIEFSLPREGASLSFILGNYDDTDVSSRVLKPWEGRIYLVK
Structure (SMILES),IC50 [2],enzyme inhibition (in words) [2],inhibition of amylase (in words) (alpha amylase),further results
"OC[C@H]1NC[C@H](O)[C@@H](O)[C@@H]1O [1-DNJ, 1-deoxynojirimycin]",,,,upper efficacy limit / saturation dose above which no further reduction in glycemic response is obtained [1]: 250 mg
O=c1cc(-c2ccc(O)cc2)oc2cc(O)cc(O)c12 [Apigenin],90 µM,,,
O=c1cc(-c2ccccc2)oc2cc(O)c(O)c(O)c12 [Baicalein],58 µM,,,
O=c1cc(-c2ccccc2)oc2cc(O)cc(O)c12 [Chrysin],,,,inhibition at 200 µM ([2]; read-out: inhibition of yeast alpha-glucosidase at fixed concentration): < 20%
"O=C1c2c(O)cc(O)cc2O[C@H](c2cc(O)c(O)c(O)c2)[C@H]1O [Dihydromyricetin, (2R,3R)-3,5,7-Trihydroxy-2-(3,4,5-trihydroxyphenyl)-2,3-dihydrochromen-4-one]",4 µM,powerful enzyme inhibitors,effective at inhibiting amylase,
O=c1cc(-c2ccc(O)c(O)c2)oc2cc(O)cc(O)c12 [Luteolin],,,,"IC50 [2, 3]: 35 µM"
"O=c1c(O)c(-c2cc(O)c(O)c(O)c2)oc2cc(O)cc(O)c12 [Myricetin, 3,5,7-Trihydroxy-2-(3,4 trihydroxyphenyl)-4-chromenone]",3.6 µM,powerful enzyme inhibitors,effective at inhibiting amylase,
O=C(CCc1ccc(O)cc1)c1c(O)cc(O)cc1O [Phloretin],,,,"IC50 [2, 3]: 96 µM"
"O=c1c(O)c(-c2ccc(O)c(O)c2)oc2cc(O)cc(O)c12 [Quercetin, 2-(3,4-dihydroxyphenyl)-3,5,7-trihydroxy-4H-chromen-4-one]",,powerful enzyme inhibitors,effective at inhibiting amylase,
